Results from patent publication US9877956B2, “Antiviral compounds and methods of use thereof” (Trana Discovery, Inc., priority 2014, dated 2018).
In brackets after ≈: the same amount, converted by molar mass. Several values for one entry are separate records, joined by “and”; a condition that tells them apart may be missing. Equal entries are not always repeated.

What was measured:
Format in all cases: cell-based
HIV-1/Ba-L = test: Inhibition of HIV-1 Ba-L replication in PBMC (RT values); conditions: for % VC: RT relative to virus control; for RT Values (cpm), SAMPLE: individual samples
Experimental: These compounds were further screened for activity in HIV-1-infected peripheral blood mononuclear cells (PBMC). The data (experiments were repeated, so duplicates are shown) is summarized in the tables below, and also in FIGS. 4A-B and 5A-B.
The HIV strain was HIV-1/Ba-L. The titer was 0.1 μL/well.

HUMAN PBMCS = test: Cytotoxicity in human PBMCs (XTT); conditions: for TOXICITY VALUES (XTT - O.D. @ 450/650 nm), SAMPLE: individual samples, listed as Trana 154
Experimental: (§1) In these studies, PHA-P stimulated PBMCs from three donors were pooled together and re-suspended in fresh tissue culture medium at 1×10^6 cells/mL and plated in the interior wells of a 96 well round bottom microplate at 50µl/well. A 100µL volume of 9 concentrations of compound serially diluted were transferred to the round-bottom 96 well plate containing the cells in triplicate. Fifty microliters (µL) of HIV-1 at a pre-determined dilution was added. Each plate contained cell control wells and virus control wells in parallel with the experimental wells. After 7 days in culture, efficacy was evaluated by measuring the reverse transcriptase in the culture supernatants and the cells were stained with the tetrazolium dye XTT to evaluate cytotoxicity.

HIV-1 92/HT/599 = HIV-1 92/HT/599 replication in human PBMCs, reverse transcriptase in culture supernatants (RLU); conditions: for RLU (Relative Light Units), SAMPLE: individual samples, listed as Trana 154
Experimental: as §1

Compound: c1ccc(N/N=C2/CCc3ccccc3N2)cc1 [HIT #154]
- % VC (HIV-1/Ba-L; 31.6 μM): 30.9%
- RT Values (cpm), SAMPLE (HIV-1/Ba-L; 31.6 μM): 10815 cpm and 7472 cpm and 8974 cpm
- RT Values (cpm), MEAN (HIV-1/Ba-L; 100 μM): 2467.8 cpm
- % VC (HIV-1/Ba-L; 100 μM): 8.4%
- RT Values (cpm), SAMPLE (HIV-1/Ba-L; 100 μM): 3062 cpm and 2720 cpm and 1622 cpm
- IC 95% (HIV-1/Ba-L; HIV-1 Ba-L in PBMC): 65.1 µM and >100 µM
- ANTIVIRAL INDEX (AI) 95% (HIV-1/Ba-L; TC/IC at 95%): >1.54
- % Cell Viability (HUMAN PBMCS; 0.32 μg/ml): 92.64%
- Cytotoxicity Test Values Mean OD @ 450/650 nm (HUMAN PBMCS; 0.32 μg/ml): 1.038 OD
- TOXICITY VALUES (XTT - O.D. @ 450/650 nm), SAMPLE (HUMAN PBMCS; 0.32 μg/ml): 0.9729 O.D. and 1.0510 O.D. and 1.0896 O.D.
- % Cell Viability (HUMAN PBMCS; 1 μg/ml): 87.74%
- Cytotoxicity Test Values Mean OD @ 450/650 nm (HUMAN PBMCS; 1 μg/ml): 0.983 OD
- TOXICITY VALUES (XTT - O.D. @ 450/650 nm), SAMPLE (HUMAN PBMCS; 1 μg/ml): 0.9683 O.D. and 1.0187 O.D. and 0.9670 O.D.
- % Cell Viability (HUMAN PBMCS; 3.16 μg/ml): 88.82%
- Cytotoxicity Test Values Mean OD @ 450/650 nm (HUMAN PBMCS; 3.16 μg/ml): 0.995 OD
- TOXICITY VALUES (XTT - O.D. @ 450/650 nm), SAMPLE (HUMAN PBMCS; 3.16 μg/ml): 0.9103 O.D. and 1.0889 O.D. and 0.9881 O.D.
- % Cell Viability (HUMAN PBMCS; 9.99 μg/ml): 99.35%
- Cytotoxicity Test Values Mean OD @ 450/650 nm (HUMAN PBMCS; 9.99 μg/ml): 1.113 OD
- TOXICITY VALUES (XTT - O.D. @ 450/650 nm), SAMPLE (HUMAN PBMCS; 9.99 μg/ml): 1.1959 O.D. and 0.9242 O.D. and 1.2189 O.D.
- % Cell Viability (HUMAN PBMCS; 31.6 μg/ml): 64.38%
- Cytotoxicity Test Values Mean OD @ 450/650 nm (HUMAN PBMCS; 31.6 μg/ml): 0.721 OD
- TOXICITY VALUES (XTT - O.D. @ 450/650 nm), SAMPLE (HUMAN PBMCS; 31.6 μg/ml): 0.6103 O.D. and 0.6005 O.D. and 0.7620 O.D.
- % Cell Viability (HUMAN PBMCS; 100 μg/ml): 46.94%
- Cytotoxicity Test Values Mean OD @ 450/650 nm (HUMAN PBMCS; 100 μg/ml): 0.526 OD
- TOXICITY VALUES (XTT - O.D. @ 450/650 nm), SAMPLE (HUMAN PBMCS; 100 μg/ml): 0.4574 O.D. and 0.5742 O.D. and 0.5461 O.D.
- TC 25% (HUMAN PBMCS; human PBMCs, XTT): 22.3 µg/mL (≈ 94 µM)
- TC50 (TC 50%) (HUMAN PBMCS; human PBMCs, XTT): 81.7 µg/mL (≈ 344 µM)
- TC 95% (HUMAN PBMCS; human PBMCs, XTT): >100 µg/mL
- % Virus Control (HIV-1 92/HT/599; 0.32 μg/ml): 84.00%
- Antiviral Test Values Mean RLU (HIV-1 92/HT/599; 0.32 μg/ml): 16201.3 RLU
- RLU (Relative Light Units), SAMPLE (HIV-1 92/HT/599; 0.32 μg/ml): 27495.0 RLU and 14218.0 RLU and 6891.0 RLU
- % Virus Control (HIV-1 92/HT/599; 1 μg/ml): 78.40%
- Antiviral Test Values Mean RLU (HIV-1 92/HT/599; 1 μg/ml): 15121.3 RLU
- RLU (Relative Light Units), SAMPLE (HIV-1 92/HT/599; 1 μg/ml): 10410.0 RLU and 21914.0 RLU and 13031.0 RLU
- % Virus Control (HIV-1 92/HT/599; 3.16 μg/ml): 41.46%
- Antiviral Test Values Mean RLU (HIV-1 92/HT/599; 3.16 μg/ml): 7996.7 RLU
- RLU (Relative Light Units), SAMPLE (HIV-1 92/HT/599; 3.16 μg/ml): 11407.0 RLU and 10934.0 RLU and 1649.0 RLU
- % Virus Control (HIV-1 92/HT/599; 9.99 μg/ml): 48.92%
- Antiviral Test Values Mean RLU (HIV-1 92/HT/599; 9.99 μg/ml): 9436.3 RLU
- RLU (Relative Light Units), SAMPLE (HIV-1 92/HT/599; 9.99 μg/ml): 13230.0 RLU and 13148.0 RLU and 1933.0 RLU
- % Virus Control (HIV-1 92/HT/599; 31.6 μg/ml): 35.47%
- Antiviral Test Values Mean RLU (HIV-1 92/HT/599; 31.6 μg/ml): 6841.0 RLU
- RLU (Relative Light Units), SAMPLE (HIV-1 92/HT/599; 31.6 μg/ml): 5800.0 RLU and 7652.0 RLU and 7462.0 RLU
- % Virus Control (HIV-1 92/HT/599; 100 μg/ml): 6.75%
- Antiviral Test Values Mean RLU (HIV-1 92/HT/599; 100 μg/ml): 1301.3 RLU
- RLU (Relative Light Units), SAMPLE (HIV-1 92/HT/599; 100 μg/ml): 1021.0 RLU and 744.0 RLU and 2139.0 RLU
- EC 25% (HIV-1 92/HT/599; HIV-1 92/HT/599, human PBMCs): 1.11 µg/mL (≈ 4.68 µM)
- EC 95% (HIV-1 92/HT/599; HIV-1 92/HT/599, human PBMCs): >100 µg/mL
- EC50 (HIV-1 92/HT/599; Human immunodeficiency virus 1, PBMC, read-out: EC50 (EC 50%), HIV-1 92/HT/599, human PBMCs): 2.42 µg/mL (≈ 10.2 µM)
- Therapeutic Index (TI) 25% (HIV-1 92/HT/599; TC/EC at 25%): 20.09
- Therapeutic Index (TI) 50% (HIV-1 92/HT/599; TC/EC at 50%): 33.76
- Therapeutic Index (TI) 95% (HIV-1 92/HT/599; TC/EC at 95%): 1
